Key:
Format in all cases: cell-based
Set-up in all cases: unit not given here
[1] = test system: A. baumannii 4010; experiment: MIC by CLSI agar/broth dilution, Test Example 1; settings: Table 2; strain produces OXA-51
Experimental: (§1) The MIC (minimum inhibitory concentration) was determined by the CLSI (Clinical and Laboratory Standards Institute) methods. The agar dilution method for determining antimicrobial susceptibility was carried out using Mueller Hinton-II agar and the amount of inoculation was 10^4 CFU/spot. Broth dilution tests were performed using Mueller Hinton-II broth. All assays were run with the indicated control strains, available from the ATCC (American Type Culture Collection, Rockville, Md.).

[2] = test system: A. baumannii KABA 01-33; experiment: MIC by CLSI agar/broth dilution, Test Example 1; settings: Table 2; strain produces OXA-2, VIM-2
Experimental: as §1

[3] = test system: E. coli ATCC10536; experiment: MIC by CLSI agar/broth dilution, Test Example 1; settings: Table 2
Experimental: as §1

[4] = test system: K. pneumoniae ATCC10031; experiment: MIC by CLSI agar/broth dilution, Test Example 1; settings: Table 2
Experimental: as §1

[5] = test system: P. aeruginosa ATCC27853; experiment: MIC by CLSI agar/broth dilution, Test Example 1; settings: Table 2
Experimental: as §1

[6] = test system: A. baumannii FSAb-029; experiment: Antimicrobial Susceptibility Test (CLSI), Test Example 2; settings: Table 4; strain produces OXA-2, IMP-1
Procedure, shortened: (§2)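 Following CLSI procedures, both agar dilution (10^4CFU/spot on Mueller Hinton-II agar) and broth dilution (Mueller Hinton-II broth) were performed. Indicated ATCC control strains accompanied every run.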

[7] = test system: A. baumannii FSAb-039; experiment: as above; settings: Table 4; strain produces OXA-51
Procedure, shortened: as §2

[8] = test system: A. baumannii FSAb-056; experiment: as above; settings: Table 4; strain produces OXA-23, OXA-51
Procedure, shortened: as §2

[9] = test system: A. baumannii FSAb-065; experiment: as above; settings: Table 4; strain produces OXA-2, VIM-2
Procedure, shortened: as §2

[10] = test system: E. coli FSEco-054; experiment: as above; settings: Table 4; strain produces ESBL
Procedure, shortened: as §2

[11] = test system: K. pneumoniae ATCC BAA-1904; experiment: as above; settings: Table 4; strain produces KPC-3
Procedure, shortened: as §2

[12] = test system: P. aeruginosa FSPa-121; experiment: as above; settings: Table 4; strain produces OXA-17
Procedure, shortened: as §2

C[C@@H](O)[C@H]1C(=O)N2C(C(=O)O)=C(CN(C)CCNC(=O)c3ccc(O)c(O)c3Cl)[C@H](C)[C@H]12 [Compound 1]
MIC (minimum inhibitory concentration), A. baumannii 4010 [1]: 2 | MIC (minimum inhibitory concentration), A. baumannii KABA 01-33 [2]: 1 | MIC (minimum inhibitory concentration), E. coil ATCC10536 [3]: 0.5 | MIC (minimum inhibitory concentration), K. pneumoniae ATCC10031 [4]: 0.063 | MIC (minimum inhibitory concentration), P. aeruginosa ATCC27853 [5]: 4 | antimicrobial susceptibility, A. baumannii FSAb-029 [6]: 1 | antimicrobial susceptibility, A. baumannii FSAb-039 [7]: 2 | antimicrobial susceptibility, A. baumannii FSAb-056 [8]: 2 | antimicrobial susceptibility, A. baumannii FSAb-065 [9]: 1 | antimicrobial susceptibility, E. coil FSEco-054 [10]: 1 | antimicrobial susceptibility, K. pneumoniae BAA-1904 [11]: 8 | antimicrobial susceptibility, P. aeruginosa FSPa-121 [12]: 2

C[C@@H](O)[C@H]1C(=O)N2C(C(=O)O)=C(CN(C)CCNC(=O)c3cc(O)c(O)cc3Cl)[C@H](C)[C@H]12 [Compound 5]
MIC (minimum inhibitory concentration), A. baumannii 4010 [1]: 8 | MIC (minimum inhibitory concentration), A. baumannii KABA 01-33 [2]: 2 | MIC (minimum inhibitory concentration), E. coil ATCC10536 [3]: 1 | MIC (minimum inhibitory concentration), K. pneumoniae ATCC10031 [4]: 0.13 | MIC (minimum inhibitory concentration), P. aeruginosa ATCC27853 [5]: 16 | antimicrobial susceptibility, A. baumannii FSAb-029 [6]: 8 | antimicrobial susceptibility, A. baumannii FSAb-039 [7]: 8 | antimicrobial susceptibility, A. baumannii FSAb-056 [8]: 8 | antimicrobial susceptibility, A. baumannii FSAb-065 [9]: 8 | antimicrobial susceptibility, E. coil FSEco-054 [10]: 4 | antimicrobial susceptibility, K. pneumoniae BAA-1904 [11]: 32 | antimicrobial susceptibility, P. aeruginosa FSPa-121 [12]: 8

C[C@@H](O)[C@H]1C(=O)N2C(C(=O)O)=C(CN(C)CCNC(=O)c3cc(O)c(O)c(Cl)c3)[C@H](C)[C@H]12 [Compound 6]
MIC (minimum inhibitory concentration), A. baumannii 4010 [1]: 4 | MIC (minimum inhibitory concentration), A. baumannii KABA 01-33 [2]: 1 | MIC (minimum inhibitory concentration), E. coil ATCC10536 [3]: 0.5 | MIC (minimum inhibitory concentration), K. pneumoniae ATCC10031 [4]: 0.063 | MIC (minimum inhibitory concentration), P. aeruginosa ATCC27853 [5]: 8 | antimicrobial susceptibility, A. baumannii FSAb-029 [6]: 2 | antimicrobial susceptibility, A. baumannii FSAb-039 [7]: 4 | antimicrobial susceptibility, A. baumannii FSAb-056 [8]: 2 | antimicrobial susceptibility, A. baumannii FSAb-065 [9]: 2 | antimicrobial susceptibility, E. coil FSEco-054 [10]: 1 | antimicrobial susceptibility, K. pneumoniae BAA-1904 [11]: 32 | antimicrobial susceptibility, P. aeruginosa FSPa-121 [12]: 2

C[C@@H](O)[C@H]1C(=O)N2C(C(=O)O)=C(CN(C)CC(=O)NCCNC(=O)c3ccc(O)c(O)c3Cl)[C@H](C)[C@H]12 [Compound 19]
MIC (minimum inhibitory concentration), A. baumannii 4010 [1]: 4 | MIC (minimum inhibitory concentration), A. baumannii KABA 01-33 [2]: 1 | MIC (minimum inhibitory concentration), E. coil ATCC10536 [3]: 0.5 | MIC (minimum inhibitory concentration), K. pneumoniae ATCC10031 [4]: 0.063 | MIC (minimum inhibitory concentration), P. aeruginosa ATCC27853 [5]: 4 | antimicrobial susceptibility, A. baumannii FSAb-029 [6]: 8 | antimicrobial susceptibility, A. baumannii FSAb-039 [7]: 8 | antimicrobial susceptibility, A. baumannii FSAb-056 [8]: 8 | antimicrobial susceptibility, A. baumannii FSAb-065 [9]: 8 | antimicrobial susceptibility, E. coil FSEco-054 [10]: 8 | antimicrobial susceptibility, K. pneumoniae BAA-1904 [11]: 8 | antimicrobial susceptibility, P. aeruginosa FSPa-121 [12]: 4

C[C@@H](O)[C@H]1C(=O)N2C(C(=O)O)=C(CN(C)CC(=O)NCCc3ccc(O)c(O)c3)[C@H](C)[C@H]12 [Compound 22]
MIC (minimum inhibitory concentration), A. baumannii 4010 [1]: >32 | MIC (minimum inhibitory concentration), A. baumannii KABA 01-33 [2]: 32 | MIC (minimum inhibitory concentration), E. coil ATCC10536 [3]: 2 | MIC (minimum inhibitory concentration), K. pneumoniae ATCC10031 [4]: 0.5 | MIC (minimum inhibitory concentration), P. aeruginosa ATCC27853 [5]: >32

C[C@@H](O)[C@H]1C(=O)N2C(C(=O)O)=C(CN(C)CCNC(=O)CCc3ccc(O)c(O)c3Cl)[C@H](C)[C@H]12 [Compound 23]
MIC (minimum inhibitory concentration), A. baumannii 4010 [1]: >32 | MIC (minimum inhibitory concentration), A. baumannii KABA 01-33 [2]: 16 | MIC (minimum inhibitory concentration), E. coil ATCC10536 [3]: 8 | MIC (minimum inhibitory concentration), K. pneumoniae ATCC10031 [4]: 2 | MIC (minimum inhibitory concentration), P. aeruginosa ATCC27853 [5]: >32

C[C@@H](O)[C@H]1C(=O)N2C(C(=O)O)=C(CN(C)CCNC(=O)c3cc(=O)c(O)cn3O)[C@H](C)[C@H]12 [Compound 25]
MIC (minimum inhibitory concentration), A. baumannii 4010 [1]: 16 | MIC (minimum inhibitory concentration), A. baumannii KABA 01-33 [2]: 8 | MIC (minimum inhibitory concentration), E. coil ATCC10536 [3]: 0.5 | MIC (minimum inhibitory concentration), K. pneumoniae ATCC10031 [4]: 0.25 | MIC (minimum inhibitory concentration), P. aeruginosa ATCC27853 [5]: 32

C[C@@H](O)[C@H]1C(=O)N2C(C(=O)O)=C(CN(C)CC(=O)NCc3cc(=O)c(O)cn3O)[C@H](C)[C@H]12 [Compound 26]
MIC (minimum inhibitory concentration), A. baumannii 4010 [1]: 8 | MIC (minimum inhibitory concentration), A. baumannii KABA 01-33 [2]: 2 | MIC (minimum inhibitory concentration), E. coil ATCC10536 [3]: 0.5 | MIC (minimum inhibitory concentration), K. pneumoniae ATCC10031 [4]: 0.13 | MIC (minimum inhibitory concentration), P. aeruginosa ATCC27853 [5]: 8 | antimicrobial susceptibility, A. baumannii FSAb-029 [6]: 16 | antimicrobial susceptibility, A. baumannii FSAb-039 [7]: 16 | antimicrobial susceptibility, A. baumannii FSAb-056 [8]: 4 | antimicrobial susceptibility, A. baumannii FSAb-065 [9]: 4 | antimicrobial susceptibility, E. coil FSEco-054 [10]: 4 | antimicrobial susceptibility, K. pneumoniae BAA-1904 [11]: 32 | antimicrobial susceptibility, P. aeruginosa FSPa-121 [12]: 4

C[C@@H](O)[C@H]1C(=O)N2C(C(=O)O)=C(CN(C)CC(=O)NCc3cc(=O)c(O)co3)[C@H](C)[C@H]12 [Compound 27]
MIC (minimum inhibitory concentration), A. baumannii 4010 [1]: 8 | MIC (minimum inhibitory concentration), A. baumannii KABA 01-33 [2]: 16 | MIC (minimum inhibitory concentration), E. coil ATCC10536 [3]: 0.063 | MIC (minimum inhibitory concentration), K. pneumoniae ATCC10031 [4]: 0.063 | MIC (minimum inhibitory concentration), P. aeruginosa ATCC27853 [5]: 16

— patent US10933051B2, “Carbapenem compounds and compositions for the treatment of bacterial infections” (FOB Synthesis, Inc., priority 2017, dated 2021)
